Results as given in ChEMBL document CHEMBL1932944, “Hoiamide D, a marine cyanobacteria-derived inhibitor of p53/MDM2 interaction” (Bioorg Med Chem Lett, 2012).

Key:
[1] = Inhibition of human biotin-labelled p53/GST-tagged Hdm2 interaction preincubated for 20 mins before GST-tagged Hdm2 protein addition measured after 1 hr by HTR-FRET based competition assay
[2] = tested on: NCI-H460; experiment: Cytotoxicity against human H460 cells at 40 uM relative to control; format: functional
[3] = Inhibition of p53/HDM2 interaction

Row | IC50 [3] | Structure (SMILES) | EC50 [1] | Activity [2]
1 |  | CCC[C@@H](C)[C@H](O)[C@H](C)[C@@H](O)[C@@H](C)[C@H](Cc1nc(C2=N[C@@](C)(C3=N[C@@](C)(C(=O)N[C@H]([C@@H](O)[C@@H](C)C(=O)O)[C@@H](C)CC)CS3)CS2)cs1)OC [HOIAMIDE D] | 4.5 µM | 16%
2 | 4.6 µM | CCCCCCCC[C@H]1NC(=O)[C@@H](CC(C)C)NC(=O)[C@H]([C@@H](C)O)NC(=O)[C@@H](CC(C)C)NC(=O)[C@@H](CC(N)=O)NC(=O)[C@H](CC(N)=O)NC(=O)[C@H](C)NC(=O)[C@H]([C@@H](C)O)NC(=O)[C@H](CCCN2C=C3C(=O)[C@@](C)(OC(=O)CCC)C(=O)C(Cl)=C3[C@@H](O)[C@]23CCCO3)NC1=O (relative stereo) |  | 
3 | 230 µM | C=C(C(=O)O)C(CCCCCC)C(=O)O (centres undefined) [HEXYLITACONIC ACID] |  | 
